Results on one molecule are retold here after patent US10954262B2, “Tunicamycin analogues” (Oxford University Innovation Limited, priority 2017, dated 2021).

≈ marks a conversion by molar mass, not a printed value.

In data set [1] the test system is Bacillus cereus (ATCC11778). Briefly: Kirby-Bauer disc diffusion susceptibility test. The class given is cell-based. Conditions: ATCC11778, 6 mm disc impregnated with 5 μg, 20 hours, 35° C., read-out: Diffusion distance (zone diameter). On the procedure: (§1) Bioactivity was assessed using the Kirby-Bauer disc diffusion susceptibility test. Oxoid Blank Discs were impregnated with the desired test substance. A 0.5 McFarland standard inoculum was prepared by adding 3-5 single colonies to 10 mL MH broth in a 15 mL falcon tube and standardised to 0.5 McFarland standard. The inoculum was used within 10 minutes. A sterile cotton swab was dipped in the inoculum, gently pressed against the side of the tube to remove excess liquid, and generously streaked on MH agar plate to fully cover the plate. The impregnated disc was carefully placed on the agar. The plate was incubated at 35° C. for 20 hrs overnight. A digital calliper was used to measure the zone diameter. The recorded zone diameter is an average of three zone diameters measured of one zone.
(§2) Each 6 mm disc was impregnated with 5 μg of the relevant compound (TM, A, B, C, D, or any of E1 to E7), and the diffusion zone recorded after 20 hours.
(§3) Results are shown for E2 to E7 and TM. Values quoted are zone diameters, with larger numbers indicating higher antibacterial activity.
A general note: Agar diffusion results depend on both activity and mobility in agar.

In data set [2] the test system is Bacillus subtilis (EC1524). Briefly: Kirby-Bauer disc diffusion susceptibility test. The format is cell-based. Conditions: 6 mm disc impregnated with 5 μg, 20 hours, 35° C., read-out: Diffusion distance (zone diameter). On the procedure:
as §1, §2, §3

In data set [3] the test system is Bacillus subtilis (EC1524). Briefly: microbe, parasite or virus in culture. The format is cell-based.
Data set [4] deals with Bacillus cereus (ATCC11778). Briefly: microbe, parasite or virus in culture. The class given is cell-based.
Data set [5] has as its system Pseudomonas aeruginosa (ATCC27853). In words: Kirby-Bauer disc diffusion susceptibility test. The class given is cell-based. Conditions: 6 mm disc, 5 μg. On the procedure: as §1, §2
Underlying scaffolds A, B, C and D and lipid-varied analogues E1 to E7 were assayed for potency against Pseudomonas aeruginosa (ATCC27853), according to the methods of Example 2. Results of the Kirby-Bauer disc diffusion susceptibility test conducted using Pseudomonas aeruginosa (ATCC27853) as a test organism are shown in FIG. 2 and in Table 3. MIC, MBC and IC50 values were also obtained as in Example 2.

For data set [6] the test system is unchanged. Briefly: microbe, parasite or virus in culture. The class given is cell-based.
In the next data set the test system is HEK293 kidney cells. In words: Cell proliferation assay / cell morphology (cytotoxicity). The format is cell-based, human. Conditions: HEK293. On the procedure:
(§4) Underlying scaffolds A, B, C and D and lipid-varied analogues E1 to E7 were assayed for cytotoxicity towards human liver cells (Hep2G) and human kidney cells (HEK293).
(§5) Mammalian cells were cultured in DMEM medium supplemented with 10% heat inactivated fetal bovine serum (FBS, v/v). The cultures were maintained in a humidified incubator at 37° C. in 5% CO2/95% air. FBS was reduced to 2% for the cell proliferation assay.
(§6) In sterile 96-well plate, each well was seeded with 1×10^5 cells. The cells were then grown confluent overnight in 100 μL DMEM with 10% FBS. The medium was replenished with DMEM with 2% FBS and added vehicle control or test substance the next day. For test substance in methanol, stock was added to 25 μL of DMEM with 2% FBS or PBS and placed in a laminar flow hood to let the methanol evaporate (about 1-3 hrs). Once the methanol has evaporated, DMEM with 2% FBS was added to final volume of 100 μL of desired test concentration. […] Cells were grown for additional 24 hrs. The cell viability was determined by using a Promega CellTiter 96 AQueous One Solution Cell Proliferation Assay System following the manufacturer's protocol.

Another data set relates to HepG2 liver cells. The data set is described as above. Conditions: HepG2. The format is cell-based, human. On the procedure: as §4, §5, §6
The nature of data set [7]: Single-dose PK study, intraperitoneal injection. The format is in vivo. Conditions: mice. On the procedure: The initial dose was 30 mg/kg. The x-axis indicates the time in hours after the initial injection and the y-axis indicates the blood plasma concentration of TM-8 in μg/mL in the mice.
A single-dose PK study was done using 16 mice at a dose of 30 mg/kg for the TM-8 analogue, di-N-octanoyl-tunicamycin. […] This study confirmed that the formulation was suitable for injections, and the drug is stable enough in physiological conditions.

In the case of `CCCCCCCC(=O)NC1C(OC2OC(C[C@@H](O)[C@H]3O[C@@H](n4ccc(=O)[nH]c4=O)[C@H](O)[C@@H]3O)C(O)C(O)[C@H]2NC(=O)CCCCCCC)OC(CO)[C@@H](O)C1O` (stereo partly shown) [Compound E3, Di-N-octanoyl-tunicamycin], the figures for the zone of inhibition at 5 µg/disc in [1] and in data set [2] were 12 mm and 16 mm, respectively. The MIC in data set [3] (MH broth, 35° C., 20-24 hours) is 0.78 µg/mL (≈ 0.952 µM); in [4] (MH broth, 35° C., 20-24 hours) it was 6.25 µg/mL (≈ 7.63 µM); in data set [6], 100 µg/mL (≈ 122 µM). Moreover, the 50% inhibitory concentration (IC50) (usually the concentration at which inhibition is half-maximal) in data set [3] (OD600 dose-response curve) was found to be 0.201 µg/mL (≈ 0.246 µM); in [4] (OD600 dose-response curve), 0.782 µg/mL (≈ 0.955 µM); in data set [6] it was 46.5 µg/mL (≈ 56.8 µM). Also, the MBC in data set [3] (additional 20 hours on MH agar) was above 0.98 µg/mL; in data set [4] (additional 20 hours on MH agar) it was 50 µg/mL (≈ 61.1 µM); in [6] it was above 400 µg/mL. In [5], this molecule came in with a Diffusion distance of 9 mm. For the same molecule, the Minimum lethal dose with HEK293 kidney cells and with HepG2 liver cells was above 400 µg/mL each time. In addition, the “Detectability in blood plasma” value in [7] (6 hours after intraperitoneal injection, 30 mg/kg) is recorded as “easily detectable”. Further, the “Stability in physiological conditions” value in data set [7] (30 mg/kg intraperitoneal) is “stable enough”.
